Assay results: US9737511B2, “Method of treating or preventing pathologic effects of acute increases in hyperglycemia and/or acute increases of free fatty acid flux” (Albert Einstein College of Medicine, Inc., priority 2004, dated 2017)

Columns and labels:
[1] = tested on: bovine aortic endothelial cells; assay: DNA strand breakage, Comet assay; assay type: cell-based; conditions: 30 mM glucose plus 100 μM compound, 7 days, FIG. 24
Method: Bovine aortic endothelial cells (“BAECs”, passage 4-10) were plated in 10 mm cell culture plates until confluent. Cells were incubated with either 5 mM glucose, 30 mM glucose, 30 mM glucose plus 100 μM deferoxamine (DFO), or 30 mM glucose plus 100 μM DMSO, a hydroxyl radical scavenger, for 7 days. Medium with reagents was changed daily. DNA strand breakage was detected using the Comet assay method.
DNA breakage detection was performed using the Comet Assay kit (Trevigen Gaitherburg Md.). Briefly, single cell electrophoresis was performed on the cometslide for 10 min at 1 volt/cm (measured from one electrode to another). After air-drying, the cometslide was stained with SYBR green. Fluorescence was detected using the Olympus IX70 fluorescent microscope and analysis of the fluorescent density of DNA breakage (length of tail) was performed using Image J software.

[2] = tested on: poly (ADP-ribose)polymerase (PARP); assay: PARP activity by 3H-NAD incorporation in aortic endothelial cells; assay type: cell-based, bovine; conditions: 30 mM glucose plus 100 μM compound, 6 days, FIG. 25
Method: Bovine aortic endothelial cells (“BAECs”, passage 4-10) were plated in 10 mm cell culture plates until confluent. Cells were incubated with either 5 mM glucose, 30 mM glucose, 30 mM glucose plus 100 μM deferoxamine, or 30 mM glucose plus 100 μM DMSO for 6 days and medium changed daily.
The 3H-NAD incorporation method was used to assess PARP activity. BAECs were incubated with buffer which was composed of 56 mM Hepes (pH 7.5), 28 mM KCl, 28 mM NaCl, 2 mM MgCl2, 0.01% digitonin, 25 mM NAD^+, and 1 μCi/ml ^3HNAD^+ for 10 min at 37° C. TCA was added to precipitate ribosylated protein and cells were lysed in 2% NaOH. Detection of incorporated ^3H-NAD was performed using a scintillation counter, and PARP activity determined according to the number of ^3H-NAD dpm.

[3] = tested on: endothelial nitric oxide synthase (eNOS); assay: eNOS activity (3H-citrulline) in aortic endothelial cells; assay type: cell-based, bovine; conditions: 30 mM glucose plus 100 μM deferoxamine, 24 hour, FIG. 28 bar 3
Method: Bovine aortic endothelial cells (“BAECs”, passage 4-10) were plated in 24-well plate (50,000 cell/well). Cells were incubated with either 5 mM glucose, 30 mM glucose alone, or 30 mM glucose plus 100 μM deferoxamine, for 24 hour. Six hours before eNOS activity determination, media without arginine was added to the cells to deplete endogenous arginine.
Measurement of eNOS activity was accomplished as follows. BAECs were incubated with 400 μl of PBS-^3H-arginine (1.5 μci/ml) buffer for 30 min at 37° C. The reaction was stopped by adding IN TCA (500 μl/well, ice cold ), the cells were freeze fractured in liquid nitrogen for 2 min and thawed at 37° C. for 5 min to obtain the cell lysate. After extraction with ether, the cell lysate was adjusted to pH 5.5 using Hepes buffer containing 2 mM EDTA and 2 mM of EGTA, then loaded onto Trisformed DOWEX 50WX8 ion-exchange columns and ^3H-citrulline collected. Detection of ^3H-citrulline was performed using a liquid scintillation counter, and eNOS activity was calculated from the amount of ^3H-citrulline generated.

[4] = tested on: prostacyclin synthase; assay: Prostacyclin synthase activity in aortas of diabetic mice; assay type: in vivo, mouse; conditions: STZ diabetic mice, 10 mg/kg subcutaneously once per day for 7 days, FIG. 27 bar 3
Method: (§1) Male C57B16 mice (6-8 weeks old) were made diabetic by daily injections of 50 mg/kg streptozotocin in 0.05 M NaCitrate pH 4.5 after an eight hour fast, for five consecutive days. Two weeks after the initial injection the blood glucose was determined and the diabetic mice were randomized into two groups with equal mean blood glucose levels. Deferoxamine (10 mg/kg) was injected subcutaneously once per day for 7 days in one group of diabetic animals. The aortas were collected. for prostacyclin synthase activity measurement.
Prostacyclin synthase activity measurement A competitive immunoassay method (Correlate-EIA) was used for the quantitative determination of 6-keto-PGF1α. Mouse aortas were washed with PBS and incubated at 37° C. for 3 hours in 400 μl incubation buffer containing 20 mM TRIS buffer (pH 7.5), and 15 μM arachidonic acid. 100 μl of sample was used to measure the PGF 1α.

[5] = tested on: bovine aortic endothelial cells; assay: Free intracellular iron measurement (fura-2 AM); assay type: cell-based; conditions: 30 mM glucose plus 100 μM deferoxamine, 24 hours, FIG. 23C
Method: In order to detect intracellular free iron, cells were loaded with fura-2 AM in the dark at 37° C. for 15 min in 1 ml of TBSS containing 5 μM furs-2 AM. After loading, cells were incubated with TBSS with Iml of 20 μM EDTA for 5 min. (Kress et al., “The Relationship between Intracellular Free Iron and Cell Injury in Cultured Neurons, Astrocytes, and Oligodendrocytes”, J. Neuro., 22(14):5848-5855 (2002), which is hereby incorporated by reference in its entirety). Fluorescence was detected using an Olympus IX70 with 10 X planapo objectives, run by I.P. Lab Spectrum on a Power PC computer. Analysis was performed with I.P.Lab Spectrum.
Bovine aortic endothelial cells (“BAECs”, passage 4-10) were plated in 24 well plates at […] in Eagle's MEM containing 10% FBS, essential and nonessential amino acids, and antibiotics. Cells were incubated with either 5 mM glucose, 30 mM glucose, or 30 mM glucose plus 100 μM deferoxamine. Free intracellular iron measurement was performed 24 hours later. To detect intracellular free iron, cells were loaded with fura-2 AM as described above in Example 12.

[6] = Migration of diabetic bone marrow derived, lineage depleted cells toward SDF; assay type: cell-based, mouse; conditions: cells from STZ mice treated with deferoxamine
[7] = tested on: bovine aortic endothelial cells; assay: Hyperglycemia-induced intracellular reactive oxygen species production (CM-H2DCFDA probe); assay type: cell-based; conditions: 30 mM glucose plus 250 μM deferoxamine, 72 hrs, FIG. 21 bar 4
Method: Cell culture conditions: For ROS measurement, bovine aortic endothelial cells (BAECs, passage 4-10) were plated in 96 well plates at 100,000 cells/well in Eagle's MEM containing 10% FBS, essential and nonessential amino acids, and antibiotics. Cells were incubated with either 5 mM glucose, 30 mM glucose, 30 mM glucose plus 100 micromolar deferoxamine, 30 mM glucose plus 250 micromolar deferoxamine. The deferoxamine was freshly prepared and added to the cells on three consecutive days. The ROS measurements were performed 72 hrs after the initial treatment.
Intracellular reactive oxygen species measurements: The intracellular formation of reactive oxygen species was detected using the fluorescent probe CMH2DCFDA (Molecular Probes). Cells (1×105 ml-1) were loaded with 10iM CM-H2DCFDDA, incubated for 45 min at 37° C., and analyzed in an HTS 7000 Bio Assay Fluorescent Plate Reader (Perkin Elmer) using the HTSoft program. ROS production was determined from an H202 standard curve (10-200 nmol ml-1).

[8] = tested on: streptozotocin-induced diabetic (STZ) and wild type C57 (WT) mice; assay: Graded ischemia model in dorsal soft tissue (ischemic flap), angiogenic response to ischemia; assay type: in vivo, mouse; conditions: for EPC mobilization: STZ mice vs untreated STZ mice, day 7 postischemic insult, FIG. 35
From the text: Since the vascular anatomy of the mouse dorsum is precisely known, and the major axial vessels can be easily visualized, one can create a reliable zone of ischemia with a reproducible oxygen gradient in the tissue. This has been confirmed with direct tissue oxygen tension measurements utilizing five reference points (p1-p5) spaced 0.5 cm apart proceeding from the least to most ischemic regions. This also allows for the study of discrete microenvironments of ischemia (Areas A, B, C), with Area A being the least ischemic and Area C being the most ischemic portion of the soft tissue. The design of this model facilitates direct dynamic measurement of oxygen tension, quantitation of tissue survival, with a degree of reproducibility that allows correlation of specific oxygen tensions with changes in gene expression.
Researchers have created a novel model of graded ischemia in the dorsal soft tissue of mice. Since the vascular anatomy of the mouse dorsum is precisely known, and the major axial vessels can be easily visualized, this model creates a reliable zone of ischemia with a reproducible oxygen gradient in the tissue. This has been confirmed with direct tissue oxygen tension measurements utilizing four reference points (p1-p4) spaced 0.5 cm apart, proceeding from the least to most ischemic regions.
The effect of deferoxamine, an iron chelator, on ischemic neovascularization in streptozotocin-induced diabetic (STZ) and wild type C57 (WT) mice was examined. Male C57B16 mice (6-8 weeks old) were made diabetic by daily injections of 50 mg/kg streptozotocin in 0.05 M NaCitrate pH 4.5 after an eight hour fast, for five consecutive days. Two weeks after the initial injection the blood glucose was determined, the diabetic mice were randomized into two groups with equal mean blood glucose levels.
The treatment group was pretreated 7 days prior to having an ischemic flap created on their dorsum and throughout the experiment with daily injections of deferoxamine (10 mg/kg) subcutaneously once per day for 7 days in one group of diabetic animals. […]

[9] = tested on: endothelial nitric oxide synthase (eNOS); assay: eNOS activity in aortas of diabetic mice; assay type: in vivo, mouse; conditions: STZ diabetic mice, 10 mg/kg subcutaneously once per day for 7 days, FIG. 29 bar 3
Method: as §1, with “initial injection,” for “initial injection”, “were collected” for “were collected.”, “for endothelial nitric oxide” for “for prostacyclin”, “synthase (eNOS)” for “synthase”
Measurement eNOS activity was accomplished as follows. Aortas were collected in liquid-nitrogen and tissue proteins isolated. Immunoprecipitation methods were used to purify the eNOS from tissue lysates. The purified eNOS immuno-complex was incubated with 100 μl of reaction buffer (3 μM Tetrahydrobiopterin, ImM NAPDH, 2.5 mM CaCl2, 200 U Calmodulin, ^3H-L-arginine 0.2 μCi) for 45 min at 37° C. with rolling. After the incubation, samples were loaded onto Tris-formed DOWEX 50WX8 ion-exchange column and ^3H-citrulline was collected. ^3H-citrulline was quantitated using a liquid scintillation counter and eNOS activity was calculated from the amount of ^3H-citrulline generated.

[10] = tested on: prostacyclin synthase; assay: Prostacyclin synthase activity (6-keto-PGF1α immunoassay) in aortic endothelial cells; assay type: cell-based, bovine; conditions: 30 mM glucose plus 100 μM deferoxamine, 24 hours, FIG. 26 bar 3
Method: Bovine aortic endothelial cells (“BAECs”, passage 4-10) were plated in a 24-well plate (50,000 cell/well). Cells were incubated with either 5 mM glucose, 30 mM glucose, or 30 mM glucose plus 100 μM deferoxamine. The prostacyclin synthase product, PGF-1α, was measured 24 hours later.
Prostacyclin synthase activity measured as the concentration of the stable product of prostacyclin synthase, PGF-1a. A competitive immunoassay method (Correlate-EIA) was used for the quantitative determination of 6-keto-PGF1α. Samples (100 μl) collected from BAECs culture medium were added to the assay plate, which was precoated with antibody (6-keto-PGF1α, EIA conjugate solution). PGF1α concentration was calculated according to a standard curve, and data analysis performed using AssayZap software.

[11] = tested on: diabetic mice (db/db); assay: Diabetic wound healing (wound closure); assay type: in vivo, mouse; conditions: deferoxamine-treated diabetic mice, FIGS. 33A-B
From the text: The effect of reducing the wound healing in diabetic mice (db/db) by treating them with deferoxamine was also studied in the novel model of graded ischemia in the dorsal soft tissue of mice of Example 20. The animals were made diabetics as described in Example 21.

## C[S+](C)[O-] [DMSO]
[1]
  hyperglycemia-induced DNA strand breakage: Inhibit
[2]
  hyperglycemia-induced PARP activation: Inhibit

## CC(=O)N(O)CCCCCNC(=O)CCC(=O)N(O)CCCCCNC(=O)CCC(=O)N(O)CCCCCN [deferoxamine]
[3]
  hyperglycemia-induced inhibition of eNOS activity: does not inhibit the activity of this important antiatherogenic enzyme at all
[1]
  hyperglycemia-induced DNA strand breakage: prevents
[4]
  diabetes-induced inhibition of prostacyclin synthase activity in aortas: does not inhibit the activity of this important antiatherogenic enzyme at all
[2]
  hyperglycemia-induced PARP activation: prevents
[5]
  hyperglycemia-induced increase in intracellular free iron: completely prevents
[6]
  migration toward SDF: restored to normal
[7]
  hyperglycemia-induced increased ROS (superoxide) production: completely prevents
[8]
  EPC mobilization: improved
[8]; listed as Deferoxamine
  EPC mobilization: restores
[8]; STZ mice, 10 mg/kg s.c. daily, FIG. 31B
  tissue survival: restored to normal
[8]; STZ mice, 10 mg/kg s.c. daily, day 7, FIG. 31A
  blood flow assessed by Doppler: restored to normal
[8]; STZ mice, FIG. 32
  post-ischemic neovascularization (CD31 positive blood vessel counts): restored
[8]; deferoxamine-treated diabetic animals, FIGS. 34C-D
  bone marrow-derived endothelial precursor cells mobilized in response to ischemia: 1.12%
[8]; deferoxamine-treated diabetic mice vs untreated, FIG. 34E-F
  capillary formation in ischemic tissue: substantially increase
[8]; deferoxamine-treated diabetic mice, FIGS. 34A-B
  oxygenation of ischemic flap by forming new vessels: increase oxygenation
[8]; diabetic animals treated with deferoxamine
  diabetes-induced defect in the normal angiogenic response to ischemia: completely prevents
[8]; wild type mice, FIG. 32
  neovascularization (CD31 positive blood vessel counts): improved neovascularization
[9]
  diabetes-induced inhibition of eNOS activity in aortas: does not inhibit the activity of this important antiatherogenic enzyme at all
[10]
  hyperglycemia-induced inhibition of prostacyclin synthase activity (PGF-1α): does not inhibit the activity of this important antiatherogenic enzyme at all
[11]
  complete wound closure: 16 days
